Values joined by “and” are separate entries in the source; they are usually repeats but may differ in a detail not shown here. Identical values can stand only once. Like-named read-outs stand apart in the source and are kept apart here.
Assay: TD Phase (Groups 1 and 3): plasma and ocular tissue concentrations and pharmacokinetics of Compound 18 and its metabolite Compound 4 after once daily ocular instillation of Compound 18 nanosuspension for 7 days
Assay type: in vivo, New Zealand white rabbits
Conditions: for Metabolite/Parent AUC Ratio: MW-corrected AUC of metabolite Compound 4 / parent Compound 18
From the text: This example illustrates the procedures and results for the levels of Compound 18 and its metabolite Compound 4 in plasma and ocular tissues of normotensive rabbits following ocular instillation of Compound 18 once daily for 7 consecutive days.
Twenty five (25) male New Zealand white rabbits were divided into 5 groups of varying amounts of animals per group.
The Test article, Compound 18 was formulated as a 2% nanosuspension in DI water containing 0.2% PS80 (polyoxyethylenesorbitan, monooleate (Tween 80)) and 0.4% HPMC (hydroxypropylmethylcellulose) at pH 6.77. Referred to herein as “Compound 18 nanosuspension.”
The study consisted of three groups (Groups 1-3) of 19 male rabbits (NZW) that underwent once daily morning ocular installation (1 eyedrop) for 7 consecutive days (Day 0-6). Groups 4-5 each consisted of 3 male rabbits (NZW) that were not dosed.
Blood samples (1 mL) were collected from the jugular vein at the intervals set out below for each group. The samples were then inverted several times following collection and held on wet ice until centrifuged. Samples were centrifuged within 60 minutes of collection under refrigeration (set at 5° C. for 10 minutes at 2000 g.
Group 1 (Pilot Study, terminal blood collection): blood was collected from 3 animals at 1 hour post day 7 dose of Compound 18 nanosuspension.
Group 3 (TD Phase, terminal blood collection): blood was collected from 3 animals at 0.5 hour, 3 animals at 2 hours, 3 animals at 4 hours, and 3 animals at 8 hours post day 7 dose of Compound 18 nanosuspension.
Group 1 (Pilot Study): 3 animals were terminated at 1 hour post Day 7 dose of Compound 18 nanosuspension. Following blood collection and termination, ocular tissues (aqueous humor, vitreous humor, cornea, iris/ciliary body, lens, optic nerve, retina, sclera/choroid, and trabecular meshwork) were collected from each animal and the tissue weights were recorded. Note: sclera and choroid were collected together. Iris and ciliary body were collected together.
Group 3 (TD Phase): 3 animals were terminated at 0.5 hour, 3 animals at 2 hours, 3 animals at 4 hours, and 3 animals at 8 hours post Day 7 dose of Compound 18 nanosuspension. Following blood collection and termination, ocular tissues (aqueous humor, vitreous humor, cornea, iris/ciliary body, lens, optic nerve, retina, sclera/choroid, and trabecular meshwork) were collected from each animal and the tissue weights were recorded. Note: sclera and choroid were collected together. Iris and ciliary body were collected together.
Plasma and tissue samples from treated animals (Groups 1-3) were analyzed for Compound 18 and its metabolite Compound 4 concentrations by LC-MS/MS.
Pharmacokinetic analysis was conducted using WinNonlin Version 6.2.1 (Pharsight, Mountain View, Calif.), operating as a validated software system. Noncompartmental analysis was conducted using the extravascular administration model for ocular instillation dosing.
The peak plasma and ocular tissue concentration, time to achieve peak plasma and ocular tissue concentration, half-life, and area under the plasma and ocular tissue concentration-time curve (Cmax, Tmax, T1/2, and AUC) were calculated from the TD phase combined with the pilot study mean animal plasma and ocular tissue concentrations for each sampling time/dose group for Compound 18 and its metabolite Compound 4.
BA Assay: Quantitation Range 0.05 to 100 ng/mL for Compound 18, 0.15 to 100 ng/mL for Compound 4.
3. Pipet 50 μL of each type of pre-spiked ocular tissue samples (AH/VH) for QC samples, 50 μL of incurred aqueous humor, and vitreous humor sample (if applicable) into a 96 well plate.
Ocular Tissues Homogenate Preparation: Incurred rabbit ocular tissues were weighed in Genogrinder tubes (plastic tubes with small beads) at the time of removal from the animal and stored frozen (<−70° C.) until analysis. The rabbit incurred ocular tissues were thawed on wet ice. […]

[1] = TD Phase, Group 1, 1 h, individual animals
[2] = TD Phase, Group 3, 0.5 h, individual animals
[3] = TD Phase, Group 3, 2 h, individual animals
[4] = TD Phase, Group 3, 8 h, individual animals
[5] = male, New Zealand white, rabbit, topical or ocular, 0.8 mg/kg/day, aqueous humor, Day 7, from mean concentrations
[6] = male, New Zealand white, rabbit, topical or ocular, 0.8 mg/kg/day, cornea, Day 7, from mean concentrations
[7] = male, New Zealand white, rabbit, topical or ocular, 0.8 mg/kg/day, iris/ciliary body, Day 7, from mean concentrations
[8] = male, New Zealand white, rabbit, topical or ocular, 0.8 mg/kg/day, lens, Day 7, from mean concentrations

SMILES: CCCc1nn(C)c2c(=O)[nH]c(-c3cc(S(=O)(=O)N4CC(CCCO)C4)ccc3OCC)nc12 [Compound 4, 5-(2-ethoxy-5-((3-(3-hydroxypropyl)azetidin-1-yl)sulfonyl)phenyl)-1-methyl-3-propyl-1,6-dihydro-7H-pyrazolo[4,3-d]pyrimidin-7-one]
- Metabolite/Parent AUC Ratio (Aqueous Humor, Day 7): 21700
- AUC0-8 (Cornea, Day 7, Compound 18 0.8 mg/kg ocular instillation once daily, Groups 1 and 3): 10096 ng·h/g
- Metabolite/Parent AUC Ratio (Cornea, Day 7): 52.7
- AUC0-8 (Iris/Ciliary Body, Day 7, Compound 18 0.8 mg/kg ocular instillation once daily, Groups 1 and 3): 1795 ng·h/g
- Metabolite/Parent AUC Ratio (Iris/Ciliary Body, Day 7): 13.1
- AUC0-8 (Lens, Day 7, Compound 18 0.8 mg/kg ocular instillation once daily, Groups 1 and 3): 68.7 ng·h/g
- AUC0-8 (Optic Nerve, Day 7, Compound 18 0.8 mg/kg ocular instillation once daily, Groups 1 and 3): 159 ng·h/g
- Metabolite/Parent AUC Ratio (Plasma, Day 7): 6.72
- AUC0-8 (Retina, Day 7, Compound 18 0.8 mg/kg ocular instillation once daily, Groups 1 and 3): 213 ng·h/g
- AUC0-8 (Sclera/Choroid, Day 7, Compound 18 0.8 mg/kg ocular instillation once daily, Groups 1 and 3): 1494 ng·h/g
- Compound 4 Plasma Conc. [1]: 0.412 ng/mL and 1.14 ng/mL and 0.839 ng/mL
- Final Compound 4 Sclera/Choroid Conc. [1]: 171 ng/g and 240 ng/g
- Final Compound 4 Retina Conc. (TD Phase, Group 1, 1 h, individual animals, BQL set to 0): 25.6 ng/g and 90.7 ng/g and 34.8 ng/g
- Compound 4 Sclera/Choroid Homogenate Conc. (TD Phase, Group 1, 1 h, individual animals, homogenate dilution factor 8): 21.4 ng/mL and 30.0 ng/mL
- Compound 4 Plasma Conc. [2]: 1.03 ng/mL and 0.812 ng/mL
- Final Compound 4 Sclera/Choroid Conc. [2]: 154 ng/g and 142 ng/g and 331 ng/g
- Compound 4 Sclera/Choroid Homogenate Conc. (TD Phase, Group 3, 0.5 h, individual animals, homogenate dilution factor 8): 19.3 ng/mL and 17.7 ng/mL and 41.4 ng/mL
- Compound 4 Plasma Conc. [3]: BQL (BQL = Below lower limit of quantitation (0.0500 ng/mL for Compound 18 and 0.150 ng/mL for Compound 4))
- Final Compound 4 Sclera/Choroid Conc. [3]: 121 ng/g and 234 ng/g and 88.0 ng/g
- Final Compound 4 Retina Conc. (TD Phase, Group 3, 2 h, individual animals, BQL set to 0): 118 ng/g and 23.4 ng/g and 11.4 ng/g
- Compound 4 Sclera/Choroid Homogenate Conc. (TD Phase, Group 3, 2 h, individual animals, homogenate dilution factor 8): 15.1 ng/mL and 29.2 ng/mL and 11.0 ng/mL
- Compound 4 Retina Homogenate Conc. (TD Phase, Group 3, 2 h, individual animals, homogenate dilution factor 20 (164 for animal 207671)): 0.719 ng/mL and 1.17 ng/mL and 0.568 ng/mL
- Compound 4 Plasma Conc. (TD Phase, Group 3, 4 h, individual animals): BQL (BQL = Below lower limit of quantitation (0.0500 ng/mL for Compound 18 and 0.150 ng/mL for Compound 4))
- Final Compound 4 Retina Conc. (TD Phase, Group 3, 4 h, individual animals, BQL set to 0): 16.7 ng/g and 34.6 ng/g and 14.0 ng/g
- Compound 4 Retina Homogenate Conc. (TD Phase, Group 3, 4 h, individual animals, homogenate dilution factor 20): 0.835 ng/mL and 1.73 ng/mL and 0.702 ng/mL
- Compound 4 Plasma Conc. (TD Phase, Group 3, 8 h, Mean, BQL set to 0): BQL (BQL = Below lower limit of quantitation (0.0500 ng/mL for Compound 18 and 0.150 ng/mL for Compound 4))
- Compound 4 Plasma Conc. [4]: BQL (BQL = Below lower limit of quantitation (0.0500 ng/mL for Compound 18 and 0.150 ng/mL for Compound 4))
- Compound 4 Vitreous Humor Conc. [4]: BQL (BQL = Below lower limit of quantitation (0.0500 ng/mL for Compound 18 and 0.150 ng/mL for Compound 4))
- Final Compound 4 Retina Conc. (TD Phase, Group 3, 8 h, individual animals, BQL set to 0): 8.90 ng/g and 0 ng/g and 8.34 ng/g
- Compound 4 Retina Homogenate Conc. (TD Phase, Group 3, 8 h, individual animals, homogenate dilution factor 20): BQL^a (BQL = Below lower limit of quantitation (0.0500 ng/mL for Compound 18 and 0.150 ng/mL for Compound 4)) and 0.417 ng/mL
- tissue of highest concentration (TD phase plasma and ocular tissues): highest in cornea
- AUC0-8 (Trabecular Meshwork, Day 7, Compound 18 0.8 mg/kg ocular instillation once daily, Groups 1 and 3): 533 ng·h/g
- Metabolite/Parent AUC Ratio (Vitreous Humor, Day 7): 447
- AUC0-8 (cornea, Day 7, from mean concentrations): 10096 ng·h/g
- AUC0-8 (iris/ciliary body, Day 7, from mean concentrations): 1795 ng·h/g
- AUC0-8 (lens, Day 7, from mean concentrations): 68.7 ng·h/g
- Metabolite/parent AUC ratio (Compound 4 vs Compound 18) (lens, TD phase): 63.0
- concentration at 0.5 h (male, New Zealand white, rabbit, plasma, other: ocular instillation, 0.8 mg/kg/day, TD Phase, Group 3, 0.5 h, Mean, BQL set to 0, read-out: Compound 4 Plasma Conc.): 1.02 ng/mL
- concentration at 0.5 h (male, New Zealand white, rabbit, plasma, other: ocular instillation, 0.8 mg/kg/day, TD Phase, Group 3, 0.5 h, individual animals, read-out: Compound 4 Plasma Conc.): 1.22 ng/mL
- concentration at 8 h (male, New Zealand white, rabbit, retina homogenate, other: ocular instillation (eye drop), 0.798 mg/kg/day, TD Phase, Group 3, 8 h, individual animals, homogenate dilution factor 20, read-out: Compound 4 Retina Homogenate Conc.): 0.445 ng/mL
- concentration at 1 h (male, New Zealand white, rabbit, retina, other: ocular instillation (eye drop), 0.798 mg/kg/day, TD Phase, Group 1, 1 h, Mean, read-out: Final Compound 4 Retina Conc.): 50.2 ng/g
- concentration at 2 h (male, New Zealand white, rabbit, retina, other: ocular instillation (eye drop), 0.798 mg/kg/day, TD Phase, Group 3, 2 h, Mean, read-out: Final Compound 4 Retina Conc.): 50.9 ng/g
- concentration at 4 h (male, New Zealand white, rabbit, retina, other: ocular instillation (eye drop), 0.798 mg/kg/day, TD Phase, Group 3, 4 h, Mean, read-out: Final Compound 4 Retina Conc.): 21.8 ng/g
- concentration at 8 h (male, New Zealand white, rabbit, retina, other: ocular instillation (eye drop), 0.798 mg/kg/day, TD Phase, Group 3, 8 h, Mean, read-out: Final Compound 4 Retina Conc.): 5.75 ng/g
- concentration at 1 h (male, New Zealand white, rabbit, sclera/choroid homogenate, other: ocular instillation (eye drop), 0.798 mg/kg/day, TD Phase, Group 1, 1 h, individual animals, homogenate dilution factor 8, read-out: Compound 4 Sclera/Choroid Homogenate Conc.): 17 ng/mL
- concentration at 1 h (male, New Zealand white, rabbit, sclera/choroid, other: ocular instillation (eye drop), 0.798 mg/kg/day, TD Phase, Group 1, 1 h, Mean, read-out: Final Compound 4 Sclera/Choroid Conc.): 182 ng/g
- concentration at 1 h (male, New Zealand white, rabbit, sclera/choroid, other: ocular instillation (eye drop), 0.798 mg/kg/day, TD Phase, Group 1, 1 h, individual animals, read-out: Final Compound 4 Sclera/Choroid Conc.): 136 ng/g
- concentration at 0.5 h (male, New Zealand white, rabbit, sclera/choroid, other: ocular instillation (eye drop), 0.798 mg/kg/day, TD Phase, Group 3, 0.5 h, Mean, read-out: Final Compound 4 Sclera/Choroid Conc.): 209 ng/g
- concentration at 2 h (male, New Zealand white, rabbit, sclera/choroid, other: ocular instillation (eye drop), 0.798 mg/kg/day, TD Phase, Group 3, 2 h, Mean, read-out: Final Compound 4 Sclera/Choroid Conc.): 148 ng/g
- Cmax [5]: 124 ng/mL
- Tmax [5]: 1 h
- half-life [5]: 1.95 h
- AUC(0-t) (male, New Zealand white, rabbit, topical or ocular, 0.8 mg/kg/day, aqueous humor, Day 7, from mean concentrations, read-out: AUC0-8): 314 ng·h/mL
- Cmax [6]: 3600 ng/g
- Tmax [6]: 1 h
- half-life [6]: 2.63 h
- Cmax [7]: 980 ng/g
- Tmax [7]: 1 h
- half-life [7]: 2.11 h
- Cmax [8]: 18.1 ng/g
- Tmax [8]: 1 h
- half-life [8]: 2.25 h

From patent US20220153746A1, “NITROGEN OXIDE-DONATING PDE-5 AND/OR PDE-6 INHIBITOR COMPOUNDS, AND USES THEREOF” (ILDONG PHARMACEUTICAL CO., LTD., priority 2020, published 2022)
